Results reported in patent US20120165319A1, “INHIBITORS OF INTERLEUKIN-1 BETA CONVERTING ENZYME” (VERTEX PHARMACEUTICALS INCORPORATED, priority 1995, published 2012).
Values joined by “and” are separate entries in the source; they are usually repeats but may differ in a detail not shown here. Equal values may be shown once. Read-outs that look alike come from different tables or passages of the source.

Legend:
[1] = tested on: IL-1β production, LPS-challenged mice; test: In vivo acute assay for efficacy as anti-inflammatory agent: LPS-induced IL-1β production in mice; design: species or system mouse; conditions: LPS challenged mice, 50 mg/kg; for inhibition at 50 mg/kg: Mus musculus, po, compound PO, read-out: percent inhibition of IL-1β production; for Inhibition of IL-1β Production, compound administered 0 hr relative to LPS challenge / Inhibition of IL-1β Production, compound administered +1 hr relative to LPS challenge / Inhibition of IL-1β Production, compound administered −1 hr relative to LPS challenge / Inhibition of IL-1β Production, compound administered −2 hr relative to LPS challenge: PO, * = values obtained in subsequent assays (Table 4)
Outline: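 Serum IL-1β was measured by ELISA 7 h after an IP dose of 20 mg/kg LPS in CD1 mice, n=6 per group. Compounds in olive oil/DMSO/ethanol 90:5:5 were injected IP 1 h post-LPS (some analogs were dosed at challenge), and separate groups received 50 mg/kg by oral gavage.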

ICE = target: T1, ICE (Homo sapiens, UniProt P29466); test: Enzyme assay with UV-visible substrate (visible ICE assay, Succinyl-Tyr-Val-Ala-Asp-pNitroanilide); type: biochemical
T1 sequence (P29466 120-297 limits assumed): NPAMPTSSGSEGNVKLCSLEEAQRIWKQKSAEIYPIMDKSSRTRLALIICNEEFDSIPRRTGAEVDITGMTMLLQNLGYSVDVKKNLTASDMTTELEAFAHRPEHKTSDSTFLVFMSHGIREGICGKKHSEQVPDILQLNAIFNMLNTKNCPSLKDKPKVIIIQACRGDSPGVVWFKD
T1 sequence (P29466 317-404 limits assumed): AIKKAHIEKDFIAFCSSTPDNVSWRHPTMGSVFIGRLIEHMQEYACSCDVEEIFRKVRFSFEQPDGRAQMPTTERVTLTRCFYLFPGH
Outline: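 ICE preincubated with inhibitor in DMSO for 15 min at room temperature, then Suc-Tyr-Val-Ala-Asp-pNA added. pNA release read at 405-603 nm for 20 min at 37 °C, rate from linear fit in mOD/min. Ki and inhibition mode from fits of rates at varying inhibitor concentrations to standard kinetic equations.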

[2] = In vivo rat clearance assay; conditions: for clearance: plasma, iv
Outline: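 Rats cannulated a day beforehand received 10–20 mg/kg by intravenous jugular dosing in propylene glycol/saline with 100 mM sodium bicarbonate. Carotid blood was sampled from 0 to 90 min, and plasma was extracted with acetonitrile/0.1% TFA for HPLC quantification. Clearance from non-linear regression pharmacokinetic analysis.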

[3] = 0 h, administered 0 h relative to time of LPS challenge
[4] = 1 h, administered +1 h relative to time of LPS challenge
[5] = 1 h, administered −1 h relative to time of LPS challenge
[6] = 2 h, administered −2 h relative to time of LPS challenge

| Compound | Inhibition of IL-1β Production, compound administered 0 hr relative to LPS challenge [1] | Inhibition of IL-1β Production, compound administered +1 hr relative to LPS challenge [1] | Inhibition of IL-1β Production, compound administered −1 hr relative to LPS challenge [1] | Inhibition of IL-1β Production, compound administered −2 hr relative to LPS challenge [1] | Ki (ICE; Table 5) | clearance ([2]; 10-20 mg/kg) | other results |
| --- | --- | --- | --- | --- | --- | --- | --- |
| O=C1C[C@H](NC(=O)[C@@H]2CCCN3C(=O)CC[C@H](NC(=O)c4ccccc4)C(=O)N23)C(OCCc2ccccc2)O1 (mixture of isomers) [Compound 2100k, [1S,9S(2RS,3S)]9-Benzoylamino-6,10-dioxo-1,2,3,4,7,8,9,10-octahydro-N-(2-phenethyloxy-5-oxotetrahydrofuran-3-yl)-6H-pyridazino[1,2-a][1,2]diazepine-1-carboxamide] | – | – | – | – | – | – | inhibition at 50 mg/kg [1, 3]: 32%; inhibition at 50 mg/kg [1, 4]: 72%; inhibition at 50 mg/kg [1, 5]: 50%; inhibition at 50 mg/kg [1, 6]: 30%; Ki (ICE; Table 17): 520 nM |
| O=C1C[C@H](NC(=O)[C@@H]2CCCN3C(=O)CC[C@H](NC(=O)c4ccccc4)C(=O)N23)C(OCc2ccccc2)O1 (stereo partly drawn) [Compound 213e, [1S,9S(2RS,3S)]9-Benzoylamino-6,10-dioxo-1,2,3,4,7,8,9,10-octahydro-N-(2-benzyloxy-5-oxotetrahydrofuran-3-yl)-6H-pyridazino[1,2-a][1,2]-diazepine-1-carboxamide] | 41% | 89% | 48% | 0% | 130 nM | – | – |
| O=C(O)C[C@H](NC(=O)[C@@H]1CCCN2C(=O)CC[C@H](NC(=O)c3ccccc3)C(=O)N12)C(=O)CSc1nnnn1-c1ccccc1 [Compound 280, [3S(1S,9S)]3-(9-Benzoylamino-6,10-dioxo-1,2,3,4,7,8,9,10-octahydro-6H-pyridazino[1,2-a][1,2]diazepine-1-carboxamido)-4-oxo-5(1-phenyl-1H-tetrazole-5-thio)pentanoic acid] | – | – | – | – | – | 187 mL/min/kg | – |
| O=C(O)C[C@H](NC(=O)[C@@H]1CCCN2C(=O)CC[C@H](NC(=O)c3ccccc3)C(=O)N12)C(=O)COc1cccnc1 [Compound 283, [3S(1S,9S)]3-[9-Benzoylamino-6,10-dioxo-1,2,3,4,7,8,9,10-octahydro-6H-pyridazino[1,2-a][1,2]diazepine-1-carboxamido]-4-oxo-5-(3-pyridyloxy)pentanoic acid] | – | – | – | – | – | 104 mL/min/kg | – |
| CS(=O)(=O)N[C@H]1CCC(=O)N2CCC[C@@H](C(=O)N[C@@H](CC(=O)O)C(=O)COC(=O)c3cccc4ccccc34)N2C1=O [Compound 286, [3S(1S,9S)]3-(6,10-Dioxo-9-methanesulphonylamino-1,2,3,4,7,8,9,10-octahydro-6H-pyridazino[1,2-a][1,2]diazepine-1-carboxamido)-5-(1-naphthoyloxy)-4-oxopentanoic acid] | – | – | – | – | – | – | Clearance Rat, i.v. ([2]; Table 18): 119 mL/min/kg |
| CC(C)(C)OC(=O)C[C@@H](C=O)NC(=O)[C@@H]1CCCN2C(=O)CC[C@H](NC(=O)c3ccccc3)C(=O)N12 [Compound 302, [3S(1S,9S)3-(9-Benzoylamino-6,10-dioxo-1,2,3,4,7,8,9,10-octahydro-6H-pyriazino-[1,2-a][1,2]diazapine-1-carboxamido)-amino]-4-oxobutanoic acid tert-butyl ester] | 21% | 26% | 27% | 0% | 4500 nM | – | – |
| O=C[C@H](CC(=O)O)NC(=O)[C@@H]1CCCN2C(=O)CC[C@H](NC(=O)c3nccc4ccccc34)C(=O)N12 [Compound 412, [3S(1S,9S)]3-[6,10-Dioxo-9-(isoquinolin-1-oylamino)-1,2,3,4,7,8,9,10-octahydro-6H-pyridazino[1,2-a][1,2]diazepine-1-carboxamido]-4-oxobutanoic acid] | – | – | – | – | 1.3 nM | 25 mL/min/kg | – |
| Cc1nc(C)c(C(=O)N[C@H]2CCC(=O)N3CCC[C@@H](C(=O)N[C@H](C=O)CC(=O)O)N3C2=O)s1 [Compound 423] | – | – | – | – | 10 nM | 45 mL/min/kg | – |
| O=C[C@H](CC(=O)O)NC(=O)[C@@H]1CCCN2C(=O)CC[C@H](NC(=O)c3cccc(Cl)c3)C(=O)N12 [Compound 455] | – | – | – | – | 1.2 nM | 54 mL/min/kg | – |
| CC(C)C(=O)Nc1ccc(C(=O)N[C@H]2CCC(=O)N3CCC[C@@H](C(=O)N[C@H](C=O)CC(=O)O)N3C2=O)cc1 [Compound 484] | – | – | – | – | 2 nM | 15 mL/min/kg | – |
| COCC(=O)N1C[C@H](NC(=O)c2ccccc2)C(=O)N(CC(=O)N[C@H](C=O)CC(=O)O)c2ccccc21 [Compound 605e, (3S)-3-[(3S)-2-Oxo-3-benzoylamino-5-methoxyacetyl-2,3,4,5-tetrahydro-1H-1,5-benzodiazepin-1-acetylamino]-4-oxo-butyric acid] | – | – | – | – | 29 nM | 24 mL/min/kg | – |
| CC(=O)N1C[C@H](NC(=O)c2cc(C)c(O)c(C)c2)C(=O)N(CC(=O)N[C@H](C=O)CC(=O)O)c2ccccc21 [Compound 671, (3S)-3-[(3S)-2-Oxo-3-(3,5-dimethyl-4-hydroxybenzoyl)amino-5-acetyl-2,3,4,5-tetrahydro-1H-1,5-benzodiazepine-1-acetylamino]-4-oxo-butyric acid] | – | – | – | – | – | – | Ki (ICE; Table 17): 5 nM; clearance ([2]; Table 17): 33.2 mL/min/kg |
| O=C1C[C@H](NC(=O)[C@@H]2CCCN3C(=O)CC[C@H](NC(=O)C(=O)c4ccccc4)C(=O)N23)C(OCc2ccccc2)O1 (stereo partly drawn) [Compound 2001, [1S,9S(2RS,3S)]9-Benzoylformylamino-6,10-dioxo-1,2,3,4,7,8,9,10-octahydro-N-(2(R,S)-benzyloxy-5-oxotetrahydrofuran-3-yl)-6H-pyridazino[1,2-a][1,2]-diazepine-1-carboxamide] | ~57% and 58* % | ~54% and 55* % | ~62% and 62* % | ~63% and 64* % | 135 nM | – | inhibition at 50 mg/kg [1, 3]: 58%; inhibition at 50 mg/kg [1, 4]: 55%; inhibition at 50 mg/kg [1, 5]: 62%; inhibition at 50 mg/kg [1, 6]: 64% |
| CC(C)OC1OC(=O)C[C@@H]1NC(=O)[C@@H]1CCCN2C(=O)CC[C@H](NC(=O)c3ccccc3)C(=O)N12 (stereo partly drawn) [Compound 2100a, [1S,9S(2RS,3S)]9-Benzoylamino-6,10-dioxo-1,2,3,4,7,8,9,10-octahydro-N-(2-isopropoxy-5-oxo-tetrahydro-furan-3-yl)-6H-pyridazino-[1,2-a][1,2]diazepine-1-carboxamide] | 67% | 58% | 71% | 8% | 100 nM | – | – |
| CCOC(=O)C[C@H](NC(=O)[C@@H]1CCCN2C(=O)CC[C@H](NC(=O)c3ccccc3)C(=O)N12)C(OCC)OCC [Compound 2100b] | 47% | 26% | 0% | 0% | 8000 nM | – | – |
| COC(=O)C[C@H](NC(=O)[C@@H]1CCCN2C(=O)CC[C@H](NC(=O)c3ccccc3)C(=O)N12)C(OC)OC [Compound 2100c] | 85% | 40% | 0% | 0% | 7400 nM | – | – |
| CC(C)OC(=O)C[C@H](NC(=O)[C@@H]1CCCN2C(=O)CC[C@H](NC(=O)c3ccccc3)C(=O)N12)C(OC(C)C)OC(C)C [Compound 2100d] | 52% | 26% | 35% | 42% | > 100000 nM | – | – |
| CCOC1OC(=O)C[C@@H]1NC(=O)[C@@H]1CCCN2C(=O)CC[C@H](NC(=O)c3ccccc3)C(=O)N12 (stereo partly drawn) [Compound 2100e, [1S,9S(2RS,3S)]9-Benzoylamino-6,10-dioxo-1,2,3,4,7,8,9,10-octahydro-N-(2-ethoxy-5-oxo-tetrahydro-furan-3-yl)-6H-pyridazino[1,2-a][1,2]-diazepine-1-carboxamide] | 94% | 66% | 54% | 49% | 250 nM | – | – |
